Test results taken from patent US12590096B2, “Imidazo[2,1-f][1,2,4]triazin-4-amine as TLR8 agonists” (BeOne Medicines | GmbH, priority 2019, dated 2026).
pEC50: −log10 of the molar value. Where two headings read alike, the source gives them in different places.

Key:
[1] = biological target: T1, human TLR 8 protein in HEK-blue hTLR 8 tool cell line (Homo sapiens, UniProt Q9NR97); experiment: TLR8 stimulation determined by HEK-Blue Detection (NF-κB/SEAP reporter); assay type: cell-based; conditions: HEK-Blue hTLR8 cells, 16 h incubation, relative to maximum activation by Resiquimod or motolimod; read-out: EC50 (nmol)
T1 construct: expressed in transfected cells; host or cells: HEK293 (HEK-Blue hTLR8)
T1 sequence (Q9NR97 27-1041): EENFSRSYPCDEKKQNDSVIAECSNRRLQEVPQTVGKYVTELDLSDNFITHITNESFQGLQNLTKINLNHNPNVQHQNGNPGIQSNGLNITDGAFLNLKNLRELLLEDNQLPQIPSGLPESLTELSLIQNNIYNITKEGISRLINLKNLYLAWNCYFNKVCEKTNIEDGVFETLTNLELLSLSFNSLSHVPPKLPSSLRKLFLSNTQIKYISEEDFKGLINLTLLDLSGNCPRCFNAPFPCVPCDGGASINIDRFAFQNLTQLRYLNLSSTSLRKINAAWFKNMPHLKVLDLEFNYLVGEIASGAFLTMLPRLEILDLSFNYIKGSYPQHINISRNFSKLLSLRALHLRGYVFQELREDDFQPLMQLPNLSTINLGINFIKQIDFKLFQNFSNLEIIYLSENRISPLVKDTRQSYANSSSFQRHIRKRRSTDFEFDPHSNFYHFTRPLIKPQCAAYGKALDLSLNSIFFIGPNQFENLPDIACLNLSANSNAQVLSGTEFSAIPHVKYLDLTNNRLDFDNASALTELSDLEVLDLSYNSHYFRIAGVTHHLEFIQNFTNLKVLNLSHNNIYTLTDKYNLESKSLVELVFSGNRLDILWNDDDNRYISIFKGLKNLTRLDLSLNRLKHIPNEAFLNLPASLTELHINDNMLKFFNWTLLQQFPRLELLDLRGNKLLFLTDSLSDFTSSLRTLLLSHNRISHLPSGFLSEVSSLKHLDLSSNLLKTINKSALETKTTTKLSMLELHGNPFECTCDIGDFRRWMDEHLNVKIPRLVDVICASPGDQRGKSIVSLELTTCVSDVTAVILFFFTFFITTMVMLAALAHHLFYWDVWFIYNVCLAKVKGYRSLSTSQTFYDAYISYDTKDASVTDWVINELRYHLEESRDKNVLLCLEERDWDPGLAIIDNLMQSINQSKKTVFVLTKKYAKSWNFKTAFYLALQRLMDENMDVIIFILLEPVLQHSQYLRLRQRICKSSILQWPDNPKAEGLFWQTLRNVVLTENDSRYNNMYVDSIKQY
From the text: TLR8 Stimulation Determined by HEK-Blue Detection
This assay was designed to study the stimulation of human TLR 8 protein in HEK-blue hTLR 8 tool cell line by monitoring the activation of NF-κB. HEK-blue hTLR8 cells were obtained by co-transfection of hTLR8 gene and optimized secretory embryonic alkaline phosphatase (SEAP) reporter gene into HEK293 cells. SEAP reporter gene was put under the control of […] minimal promoter fused with five NF-κB and AP-1-binding sites. NF-κB and AP-1 were activated by stimulation with TLR 8 ligand, thus inducing the expression of SEAP. The level of SEAP can be easily determined by HEK-Blue Detection (a cell culture medium that allows real-time detection of SEAP). HEK-Blue Detection comprises all nutrients needed for cell growth and specific SEAP color substrates. The hydrolysis of substrate by SEAP produces purple/blue color which can be measured by spectrophotometer.
When growing to 50-80% confluence, HEK-Blue hTLR7/8 cells were plated into 96-well plates (costar 3599) at a density of 40,000 cells/well. Then, the compound serially diluted at 10 points with a final concentration ranging from 1 nM to 10 μm in 0.1% DMSO/HEK-Blue Detection was added. The plates were then incubated in 5% CO2 at 37° C. for 16 h. Optical density at 620-655 nm was read on BMG PHERAstar FSX instrument. The EC50 of each compound was determined by calculating the maximum activation percentage identified using Resiquimod or motolimod.
The EC50 of the tested compound of the present invention is as follows.

[2] = system: PBMC (peripheral blood monocyte); experiment: PBMC determination: cytokines in culture supernatant measured by HTRF; assay type: cell-based; conditions: human PBMC, 24 h
Method: Determination of PBMC (Peripheral Blood Monocyte) Cell Preparation, Separation and Culture
Human whole blood was collected from healthy volunteers using BD Vacutainer® Lithium Heparin Tubes. PBMCs were prepared using Ficoll separation medium (GE Healthcare) by SopMate™ (STEMCELL). The cell survival rate was over 85% as monitored by Countstar. PBMCs were cultured in RPMI 1640 (Gibco) 10% (v/v) FBS (Gibco), 1×MEM NEAA (Gibco), 1× GlutaMAX (Gibco), 1 mM sodium pyruvate (Gibco), 50 uM 2-mercaptoethanol (sigma), and 100 U/ml penicillin-streptomycin (Thermo fisher Scientific).
PBMCs were plated into 96-well plates (costar 3894) with a density of 2×10^5 cells/well. Then, TLR7/8 compound was added, and serial dilution was carried out at ten points. The final concentration in 0.1% DMSO/RPMI 1640 ranged from 1 nM to 10 μM. Then, the plates were incubated in 5% CO2 at 37° C. for 24 h.
HTRF (Homogeneous Time-Resolved Fluorescence)
After the specified time point, according to the manufacturers recommendations, the cytokines in the cell culture supernatant were measured by Human IL6 kit (cisbio) and Human TNF alpha kit (cisbio). The EC50 of each compound was determined by calculating the maximum activation percentage identified using Resiquimod or Motolimod.

[3] = Human IL6 kit (HTRF), read-out: IL6 (EC50)
[4] = Human TNF alpha kit (HTRF), read-out: TNF-alpha (EC50)

CCC[C@H](C)Oc1nc(N)c2ncc(CC3CCN(CCNC)CC3)n2n1 [Compound B12, (S)-7-((1-(2-(methylamino)ethyl)piperidin-4-yl)methyl)-2-(pent-2-yloxy)imidazo[2,1-f][1,2,4]triazin-4-amine]
pEC50 [1]: 7.72
pEC50 [2, 3]: 7.85
pEC50 [2, 4]: 8.00

CCC[C@H](C)Oc1nc(N)c2ncc(CC3CCCNCC3)n2n1 (stereo partly drawn) [Compound B25, 7-(azepan-4-ylmethyl)-2-(((S)-pent-2-yl)oxy)imidazo[2,1-f][1,2,4]triazin-4-amine]
pEC50 [1]: 7.20
pEC50 [2, 3]: 6.63
pEC50 [2, 4]: 6.34

CCC[C@H](C)Oc1nc(N)c2ncc(CC3CCNC(C)C3)n2n1 (stereo partly drawn) [Compound B27, 7-((2-methylpiperidin-4-yl)methyl)-2-(((S)-pent-2-yl)oxy)imidazo[2,1-f][1,2,4]triazin-4-amine]
pEC50 [1]: 7.70
pEC50 [2, 3]: 6.64
pEC50 [2, 4]: 6.49

CCC[C@H](C)Oc1nc(N)c2ncc(CC3CC4CCC(C3)N4)n2n1 (stereo partly drawn) [Compound B56, 7-((8-azabicyclo[3.2.1]oct-3-yl)methyl)-2-(((S)-pent-2-yl)oxy)imidazo[2,1-f][1,2,4]triazin-4-amine]
pEC50 [1]: 5.72

CCC[C@H](C)Oc1nc(N)c2ncc(CC3CCC(NC)CC3)n2n1 (stereo partly drawn) [Compound B31, (S)-7-((4-(methylamino)cyclohexyl)methyl)-2-(pent-2-yloxy)imidazo[2,1-f][1,2,4]triazin-4-amine]
pEC50 [1]: 6.99

CCCC(C)Oc1nc(N)c2ncc(CN3CCNC[C@H]3C)n2n1 (stereo partly drawn) [Compound B18, 7—(((R)-2-methylpiperazin-1-yl)methyl)-2-(pent-2-yloxy)imidazo[2,1-f][1,2,4]triazin-4-amine]
pEC50 [1]: 5.57

CCC[C@H](C)Oc1nc(N)c2ncc(NC3CCNCC3)n2n1 [Compound B37, (S)-2-(pent-2-yloxy)-N7-(piperidin-4-yl)imidazo[2,1-f][1,2,4]triazin-4,7-diamine]
pEC50 [1]: < 5.00

CCCC(C)Oc1nc(N)c2ncc(CN3CCNC[C@@H]3C)n2n1 (stereo partly drawn) [Compound B17, 7—(((S)-2-methylpiperazin-1-yl)methyl)-2-(pent-2-yloxy)imidazo[2,1-f][1,2,4]triazin-4-amine]
pEC50 [1]: 5.40

CCCC(C)Nc1nc(N)c2ncc(CC3CCNCC3)n2n1 (stereo not shown) [Compound B5, N2-(pent-2-yl)-7-(piperidin-4-ylmethyl)imidazo[2,1-f][1,2,4]triazin-2,4-diamine]
pEC50 [1]: 6.04

CCC[C@H](C)Oc1nc(N)c2ncc(CC3CCC4(CC3)CNC4)n2n1 [Compound B43, (S)-7-((2-azaspiro[3.5]non-7-yl)methyl)-2-(pent-2-yloxy)imidazo[2,1-f][1,2,4]triazin-4-amine]
pEC50 [1]: 7.62

CCC[C@H](C)Oc1nc(N)c2ncc(CC3CCNCC3(C)C)n2n1 (stereo partly drawn) [Compound B53, 7-((3,3-dimethylpiperidin-4-yl)methyl)-2-(((S)-pent-2-yl)oxy)imidazol[2,1-f][1,2,4]triazin-4-amine]
pEC50 [1]: 5.41

CCCC(C)Oc1nc(N)c2ncc(CN3CCN[C@@H](C)C3)n2n1 (stereo partly drawn) [Compound B16, 7—(((S)-3-methylpiperazin-1-yl)methyl)-2-(pent-2-yloxy)imidazo[2,1-f][1,2,4]triazin-4-amine]
pEC50 [1]: 5.07

CCCC(C)Oc1nc(N)c2ncc(CC3(C)CCNCC3)n2n1 (stereo not shown) [Compound B8, 7-((4-methylpiperidin-4-yl)methyl)-2-(pent-2-yloxy)imidazo[2,1-f][1,2,4]triazin-4-amine]
pEC50 [1]: 6.29

CCC[C@H](C)Oc1nc(N)c2ncc(CC34CC(N)(C3)C4)n2n1 [Compound B40, (S)-7-((3-aminobicyclo[1.1.1]pent-1-yl)methyl)-2-(pent-2-yloxy)imidazo[2,1-f][1,2,4]triazin-4-amine]
pEC50 [1]: 6.00

CCCC(CO)Oc1nc(N)c2ncc(CC3CCNCC3)n2n1 (stereo not shown) [Compound B34, 2-((4-amino-7-(piperidin-4-ylmethyl)imidazo[2,1-f][1,2,4]triazin-2-yl)oxy) pentan-1-ol]
pEC50 [1]: 6.65

CCCC(C)Oc1nc(N)c2ncc(CN3CCC(NC)CC3)n2n1 (stereo not shown) [Compound B21, 7-((4-(methylamino)piperidin-1-yl)methyl)-2-(pent-2-yloxy)imidazo[2,1-f][1,2,4]triazin-4-amine]
pEC50 [1]: < 5.00

CCCC(Cc1ccccc1)Oc1nc(N)c2ncc(CC3CCNCC3)n2n1 (stereo not shown) [Compound B45, 2-((1-phenylpent-2-yl)oxy)-7-(piperidin-4-ylmethyl)imidazo[2,1-f][1,2,4]triazin-4-amine]
pEC50 [1]: 6.27

CCCC(C)Oc1nc(N)c2ncc(CN3CCC(CNC)CC3)n2n1 (stereo not shown) [Compound B22]
pEC50 [1]: < 5.00

CCCC(C)Oc1nc(N)c2ncc(CN3CCNCC3)n2n1 (stereo not shown) [Compound B9, 2-(pent-2-yloxy)-7-(piperazin-1-ylmethyl)imidazo[2,1-f][1,2,4]triazin-4-amine]
pEC50 [1]: 6.28

Cc1cc(COc2nc(N)c3ncc(CC4CCNCC4)n3n2)no1 [Compound B41, 2-((5-methylisoxazol-3-yl)methoxy)-7-(piperidin-4-ylmethyl)imidazo[2,1-f][1,2,4]triazin-4-amine]
pEC50 [1]: < 5.00

CCC[C@H](C)Oc1nc(N)c2ncc(CC3CCN(CC(C)NC)CC3)n2n1 (single isomer, unassigned) [Compound B59, 7-((1-((S or R)-2-(methylamino)propyl)piperidin-4-yl)methyl)-2-(((S)-pent-2-yl)oxy)imidazo[2,1-f][1,2,4]triazin-4-amine]
pEC50 [1]: 7.68

Cc1cnc(COc2nc(N)c3ncc(CC4CCNCC4)n3n2)s1 [Compound B44, 2-((5-methylthiazol-2-yl)methoxy)-7-(piperidin-4-ylmethyl)imidazo[2,1-f][1,2,4]triazin-4-amine]
pEC50 [1]: < 5.00

CCCC(C)Oc1nc(N)c2ncc(CN3CCN[C@H](C)C3)n2n1 (stereo partly drawn) [Compound B15, 7—(((R)-3-methylpiperazin-1-yl)methyl)-2-(pent-2-yloxy)imidazo[2,1-f][1,2,4]triazin-4-amine]
pEC50 [1]: 5.97

CCCC(C)Oc1nc(N)c2ncc(CC3CCNCC3)n2n1 (stereo not shown) [Compound B2, 2-(pent-2-yloxy)-7-(piperidin-4-ylmethyl)imidazo[2,1-f][1,2,4]triazin-4-amine]
pEC50 [1]: 7.82

CCC[C@H](C)Oc1nc(N)c2ncc(CC3CCN(C4CCNCC4)CC3)n2n1 [Compound B23, (S)-7-([1,4′-bipiperidin]-4-ylmethyl)-2-(pent-2-yloxy)imidazo[2,1-f][1,2,4]triazin-4-amine]
pEC50 [1]: 6.84
